{"source": "patent US4699782A", "about": "(Delalande S.A., priority 1983, dated 1987)", "origin": "cited, not measured here", "conditions": "human, in vivo; cited from earlier work"}
{"compound": "C#CCN(C)CCCOc1ccc(Cl)cc1Cl", "note": "[Clorgyline]", "values": [{"measurement": "dose of Tyramine from which hypertensive effects were recorded", "value": "≥ 6", "unit": "mg"}]}
